Results published in publication PMC6445164, “Primary mono- and bis-sulfonamides obtained via regiospecific sulfochlorination of N-arylpyrazoles: inhibition profile against a panel of human carbonic anhydrases” (Journal of Enzyme Inhibition and Medicinal Chemistry, 2017).
Where two headings read alike, the source gives them in different places.

Columns and labels:
[1] = biological target: hCA I (Homo sapiens, UniProt P00915); assay: stopped-flow CA catalysed CO2 hydration assay, hCA I
Description: (§1) An applied photophysics stopped-flow instrument has been used for assaying the CA catalysed CO2 hydration activity[21]. […] The CO2 concentrations ranged from 1.7 to 17 mM for the determination of the kinetic parameters and inhibition constants. […] The uncatalysed rates were determined in the same manner and subtracted from the total observed rates. Stock solutions of inhibitor (0.1 mM) were prepared in distilled-deionized water and dilutions up to 0.005 nM were done thereafter with the assay buffer. Inhibitor and enzyme solutions were preincubated together for 15 min at room temperature prior to assay, in order to allow for the formation of the E–I complex. The inhibition constants were obtained by non-linear least-squares methods using PRISM 3 and the Cheng–Prusoff equation, as reported earlier, and represent the mean from at least three different determinations. All CA isoforms were recombinant ones obtained in-house[22–25].

[2] = biological target: hCA II (Homo sapiens, UniProt P00918); assay: stopped-flow CA catalysed CO2 hydration assay, hCA II
Description: as §1

[3] = biological target: hCA IV (Homo sapiens, UniProt P22748); assay: stopped-flow CA catalysed CO2 hydration assay, hCA IV
Description: as §1

[4] = biological target: hCA VII (Homo sapiens, UniProt P43166); assay: stopped-flow CA catalysed CO2 hydration assay, hCA VII
Description: as §1

[5] = within the panel hCA I, II, IV, VII
[6] = read-out: hCA Ki (μM) hCA I, recombinant enzyme, stopped-flow CO2 hydration, 15 min preincubation, pH 8.3
[7] = read-out: hCA Ki (μM) hCA II, recombinant enzyme, stopped-flow CO2 hydration, 15 min preincubation, pH 8.3
[8] = read-out: hCA Ki (μM) hCA IV, recombinant enzyme, stopped-flow CO2 hydration, 15 min preincubation, pH 8.3
[9] = read-out: hCA Ki (μM) hCA VII, recombinant enzyme, stopped-flow CO2 hydration, 15 min preincubation, pH 8.3

Chain of hCA IV (P22748 19-312): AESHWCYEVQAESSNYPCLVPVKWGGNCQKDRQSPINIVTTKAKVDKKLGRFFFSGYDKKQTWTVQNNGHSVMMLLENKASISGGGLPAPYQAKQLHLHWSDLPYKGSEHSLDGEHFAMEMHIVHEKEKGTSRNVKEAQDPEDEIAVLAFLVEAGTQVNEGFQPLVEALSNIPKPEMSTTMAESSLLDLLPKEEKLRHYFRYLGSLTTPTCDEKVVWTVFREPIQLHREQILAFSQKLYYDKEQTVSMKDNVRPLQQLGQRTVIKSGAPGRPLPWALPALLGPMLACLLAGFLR
Chain of hCA VII (P43166 whole entry): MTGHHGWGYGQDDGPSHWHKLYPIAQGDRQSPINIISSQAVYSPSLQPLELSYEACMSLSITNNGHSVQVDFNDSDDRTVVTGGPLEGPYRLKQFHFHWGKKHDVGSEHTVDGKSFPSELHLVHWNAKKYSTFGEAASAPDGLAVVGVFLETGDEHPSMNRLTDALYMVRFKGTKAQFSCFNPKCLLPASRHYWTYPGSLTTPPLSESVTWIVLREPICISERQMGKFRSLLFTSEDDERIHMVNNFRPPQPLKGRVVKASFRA
Chain of hCA I (P00915 whole entry): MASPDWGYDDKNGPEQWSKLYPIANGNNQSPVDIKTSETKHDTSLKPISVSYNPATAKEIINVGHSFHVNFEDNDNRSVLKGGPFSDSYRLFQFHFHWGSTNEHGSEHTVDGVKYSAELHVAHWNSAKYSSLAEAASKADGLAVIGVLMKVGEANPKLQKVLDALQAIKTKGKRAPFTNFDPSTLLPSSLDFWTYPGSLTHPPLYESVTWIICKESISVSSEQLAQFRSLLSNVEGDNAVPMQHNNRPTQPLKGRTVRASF

Row | Compound | melting point [°C] | Ki [1] [µM] | Ki [2] [µM] | Ki [3] [µM] | Ki [4] [µM] | other results
1 | NS(=O)(=O)c1ccc(-n2cccn2)cc1 [Compound 7a, 4-(^1H-pyrazol-1-yl)benzenesulfonamide] | 323 to 325 | 4.78 | 0.072 | > 10 | 0.8 | –
2 | Cc1ccc(-n2cccn2)cc1S(N)(=O)=O [Compound 7b, 2-Methyl-5-(^1H-pyrazol-1-yl)benzenesulfonamide] | 147 to 149 | > 10 | > 10 | 0.56 | > 10 | hCA IV inhibition, in words [3]: potent inhibition of hCA IV; isoform selectivity for hCA IV, in words [3, 5]: high selectivity
3 | Cc1cc(C)n(-c2cc(S(N)(=O)=O)ccc2C)n1 [Compound 7e, 3-(3,5-Dimethyl-^1H-pyrazol-1-yl)-4-methylbenzenesulfonamide] | 112 to 114 | 4.21 | 0.381 | > 10 | 0.194 | –
4 | Cc1ccc(S(N)(=O)=O)cc1-n1cccn1 [Compound 7f] | – | – | – | – | – | Ki [1, 6]: 1.23 µM; Ki [2, 7]: 0.059 µM; Ki [3, 8]: > 10 µM; Ki [4, 9]: 0.059 µM
5 | COc1ccc(-n2nc(C)cc2C)cc1S(N)(=O)=O [Compound 7g, 5-(3,5-Dimethyl-^1H-pyrazol-1-yl)-2-methoxybenzenesulfonamide] | 195 to 197 | > 10 | > 10 | > 10 | > 10 | –
6 | COc1ccc(-n2cccn2)cc1S(N)(=O)=O [Compound 7h] | – | – | – | – | – | Ki [1, 6]: > 10 µM; Ki [2, 7]: > 10 µM; hCA IV inhibition, in words [3]: loss of hCA IV inhibition activity; Ki [3, 8]: > 10 µM; Ki [4, 9]: > 10 µM
7 | COc1cc(-n2nc(C)cc2C)ccc1S(N)(=O)=O [Compound 7i, 4-(3,5-Dimethyl-^1H-pyrazol-1-yl)-2-methoxybenzenesulfonamide] | 156 to 158 | 8.85 | > 10 | > 10 | > 10 | –
8 | COc1cc(-n2cccn2)ccc1S(N)(=O)=O [Compound 7j, 2-Methoxy-4-(^1H-pyrazol-1-yl)benzenesulfonamide] | 221 to 223 | > 10 | > 10 | > 10 | 0.387 | isoform selectivity for hCA VII, in words [4, 5]: quite notable
9 | COc1ccc(S(N)(=O)=O)cc1-n1nc(C)cc1C [Compound 7k, 3-(3,5-Dimethyl-^1H-pyrazol-1-yl)-4-methoxybenzenesulfonamide] | 167 to 170 | > 10 | > 10 | > 10 | > 10 | hCA I inhibition, in words [1]: inactive throughout the panel; hCA II inhibition, in words [2]: inactive throughout the panel; hCA IV inhibition, in words [3]: inactive throughout the panel; hCA VII inhibition, in words [4]: inactive throughout the panel
10 | COc1ccc(S(N)(=O)=O)cc1-n1cccn1 [Compound 7l, 4-Methoxy-3-(^1H-pyrazol-1-yl)benzenesulfonamide] | 255 to 257 | > 10 | 6.65 | > 10 | > 10 | –
11 | NS(=O)(=O)c1cnn(-c2cccc(Cl)c2)c1 [Compound 8h, (3-Chlorophenyl)-^1H-pyrazole-4-sulfonamide] | – | – | – | – | – | hCA I inhibition, in words [1]: good hCA I, II and VII inhibition activity; Ki [1, 6]: 0.54 µM; hCA II inhibition, in words [2]: good hCA I, II and VII inhibition activity; Ki [2, 7]: 0.14 µM; Ki [3, 8]: 3.74 µM; hCA VII inhibition, in words [4]: good hCA I, II and VII inhibition activity; Ki [4, 9]: 0.24 µM
12 | Cc1ccc(-n2nc(C)c(S(N)(=O)=O)c2C)cc1S(N)(=O)=O [Compound 9d, 3,5-Dimethyl-1-(4-methyl-3-sulfamoylphenyl)-^1H-pyrazole-4-sulfonamide] | – | > 10 | > 10 | – | > 10 | –
13 | Cc1cc(-n2cc(S(N)(=O)=O)cn2)ccc1S(N)(=O)=O [Compound 9g, 1-(3-Methyl-4-sulfamoylphenyl)-^1H-pyrazole-4-sulfonamide] | 205 to 207 | – | – | – | – | Ki [1, 6]: 0.1 µM; Ki [2, 7]: 0.049 µM; Ki [3, 8]: 5.8 µM; Ki [4, 9]: 0.005 µM

More lines, in order of falling Ki [1], values ahead:

Row | melting point [°C] | Ki [1] [µM] | Ki [2] [µM] | Ki [3] [µM] | Ki [4] [µM] | Compound | other results
14 | 204 to 206 | 3.83 | 0.001 | 0.004 | 0.009 | NS(=O)(=O)c1ccc(Cl)c(-n2cccn2)c1 [Compound 7n, 4-Chloro-3-(^1H-pyrazol-1-yl)benzenesulfonamide] | –
15 | 182 to 184 | 0.94 | 1.08 | 9.49 | 0.46 | Cc1nn(-c2cccc(Cl)c2)c(C)c1S(N)(=O)=O [Compound 8g, 1-(3-Chlorophenyl)-3,5-dimethyl-^1H-pyrazole-4-sulfonamide] | –
16 | 164 to 166 | 0.76 | 5.33 | > 10 | > 10 | Cc1nn(-c2ccc(Cl)cc2)c(C)c1S(N)(=O)=O [Compound 8a, 1-(4-Chlorophenyl)-3,5-dimethyl-^1H-pyrazole-4-sulfonamide] | –
17 | 171 to 174 | 0.76 | 0.74 | > 10 | > 10 | Cc1ccc(-n2nc(C)c(S(N)(=O)=O)c2C)cc1 [Compound 8c, 3,5-Dimethyl-1-(4-methylphenyl)-^1H-pyrazole-4-sulfonamide] | –
18 | 204 to 206 | 0.62 | 2.64 | 7.19 | > 10 | Cc1nn(-c2ccccc2Cl)c(C)c1S(N)(=O)=O [Compound 8i, 1-(2-Chlorophenyl)-3,5-dimethyl-^1H-pyrazole-4-sulfonamide] | –
19 | 161 to 163 | 0.6 | 0.091 | > 10 | > 10 | Cc1ccccc1-n1nc(C)c(S(N)(=O)=O)c1C [Compound 8e, 3,5-Dimethyl-1-(2-methylphenyl)-^1H-pyrazole-4-sulfonamide] | –
20 | 161 to 163 | 0.54 | 0.28 | > 10 | 0.53 | Cc1nn(-c2ccccc2)c(C)c1S(N)(=O)=O [Compound 8b, 3,5-Dimethyl-1-phenyl-^1H-pyrazole-4-sulfonamide] | –
21 | 223 to 225 | 0.5 | 0.021 | 0.065 | 0.26 | Cc1nn(-c2cccc(S(N)(=O)=O)c2)c(C)c1S(N)(=O)=O [Compound 9a, 3,5-Dimethyl-1-(3-sulfamoylphenyl)-^1H-pyrazole-4-sulfonamide] | –
22 | 143 to 146 | 0.47 | 0.002 | 0.022 | 0.019 | Cc1cc(-n2nc(C)c(S(N)(=O)=O)c2C)ccc1S(N)(=O)=O [Compound 9f, 3,5-Dimethyl-1-(3-methyl-4-sulfamoylphenyl)-^1H-pyrazole-4-sulfonamide] | –
23 | – | 0.462 | 0.004 | 0.084 | 0.017 | Cc1cc(C)n(-c2ccc(S(N)(=O)=O)cc2)n1 [Compound 7o, 4-(3,5-Dimethyl-^1H-pyrazol-1-yl)benzenesulfonamide] | –
24 | 272 to 274 | 0.33 | 0.005 | 0.111 | 0.035 | Cc1nn(-c2ccc(S(N)(=O)=O)cc2)c(C)c1S(N)(=O)=O [Compound 9b, 3,5-Dimethyl-1-(4-sulfamoylphenyl)-^1H-pyrazole-4-sulfonamide] | –
25 | 217 to 220 | 0.3 | 0.004 | 0.24 | 0.068 | Cc1ccc(-n2cc(S(N)(=O)=O)cn2)cc1S(N)(=O)=O [Compound 9e, 1-(4-Methyl-3-sulfamoylphenyl)-^1H-pyrazole-4-sulfonamide] | –
26 | 174 to 176 | 0.27 | 0.24 | > 10 | 0.94 | Cc1cccc(-n2nc(C)c(S(N)(=O)=O)c2C)c1 [Compound 8d, 3,5-Dimethyl-1-(3-methylphenyl)-^1H-pyrazole-4-sulfonamide] | –
27 | 194 to 196 | 0.26 | 0.004 | 0.033 | 0.04 | Cc1cc(C)n(-c2ccc(S(N)(=O)=O)c(C)c2)n1 [Compound 7c, 4-(3,5-Dimethyl-^1H-pyrazol-1-yl)-2-methylbenzenesulfonamide] | –
28 | 254 to 257 | 0.2 | 0.002 | 0.025 | 0.041 | NS(=O)(=O)c1ccc(-n2cc(S(N)(=O)=O)cn2)cc1 [Compound 9c, 1-(4-Sulfamoylphenyl)-^1H-pyrazole-4-sulfonamide] | –
29 | 147 to 150 | 0.19 | 0.082 | 7.06 | > 10 | NS(=O)(=O)c1cnn(-c2ccc(Cl)cc2)c1 [Compound 8f, 1-(4-Chlorophenyl)-^1H-pyrazole-4-sulfonamide] | –
30 | 161 to 163 | 0.096 | 0.008 | 3.42 | 0.014 | Cc1cc(-n2cccn2)ccc1S(N)(=O)=O [Compound 7d, 2-Methyl-4-(^1H-pyrazol-1-yl)benzenesulfonamide] | –
31 | 181 to 183 | 0.066 | 0.085 | 0.086 | 0.328 | NS(=O)(=O)c1ccc(-n2cccn2)cc1Cl [Compound 7m, 2-Chloro-4-(^1H-pyrazol-1-yl)benzenesulfonamide] | –
